CO[C@@]1(NC(=O)CSCC#N)C(=O)N2C(C(=O)O)=C(CSc3nnnn3C)CS[C@@H]21
solubility (mole fraction)
Details | 278.15 K | 283.15 K | 288.15 K | 293.15 K | 298.15 K | 303.15 K
in ethanol | 0.000266 | 0.000276 | 0.000343 | 0.000435 | 0.00049 | 0.000659
in methanol | 0.00163 | 0.00187 | 0.00222 | 0.00273 | 0.00364 | 0.00445
